In paper PMC3224040 (ACS medicinal chemistry letters, 2011):
Where two headings read alike, the source gives them in different places.

Columns and labels:
dopamine D3 receptor = dopamine D3 receptor (Rattus norvegicus, UniProt P19020); assay: Yawning assay in rats; conditions: for High doses at which D2 agonist effects may be observed: antagonist interaction study in yawning assay
Aqueous solubility = format: physicochemical; conditions: aqueous medium (not further specified)
D3 receptor [1] = target: D3 receptor (Rattus norvegicus, UniProt P19020); conditions: rat brain binding, ratio of Ki values
D3 receptor [2] = conditions: cited from earlier work; for Selectivity over the D2 receptor: D3 agonists, in vitro binding data; for Selectivity for D3 over D2: D3 antagonists
D2 receptor = D2 receptor (Rattus norvegicus, UniProt P61169); conditions: for Decrease in core body temperature: pretreatment of L-741,626 at 1 mg/kg; for Dose at onset of modest D2 agonist activity: yawning and hypothermia data
human D1 receptor = human D1 receptor (Homo sapiens, UniProt P21728); assay: Binding to cloned human D1 receptor; conditions: at 10,000 nM
[3] = cited from earlier work

Chain of dopamine D3 receptor (P19020 whole entry): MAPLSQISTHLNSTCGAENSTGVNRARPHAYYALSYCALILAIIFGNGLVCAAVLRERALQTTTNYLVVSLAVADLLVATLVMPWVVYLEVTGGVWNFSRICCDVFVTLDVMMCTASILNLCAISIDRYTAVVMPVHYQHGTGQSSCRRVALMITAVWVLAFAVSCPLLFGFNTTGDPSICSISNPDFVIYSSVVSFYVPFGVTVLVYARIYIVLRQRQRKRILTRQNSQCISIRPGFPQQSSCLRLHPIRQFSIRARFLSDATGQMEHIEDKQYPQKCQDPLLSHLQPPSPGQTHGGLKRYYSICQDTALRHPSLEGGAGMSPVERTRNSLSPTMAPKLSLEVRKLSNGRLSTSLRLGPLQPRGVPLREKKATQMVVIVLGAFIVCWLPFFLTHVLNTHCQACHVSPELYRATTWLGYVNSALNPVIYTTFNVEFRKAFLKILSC
Chain of D3 receptor (Rattus norvegicus, UniProt P19020) (P19020 whole entry): as above
Chain of D2 receptor (P61169 whole entry): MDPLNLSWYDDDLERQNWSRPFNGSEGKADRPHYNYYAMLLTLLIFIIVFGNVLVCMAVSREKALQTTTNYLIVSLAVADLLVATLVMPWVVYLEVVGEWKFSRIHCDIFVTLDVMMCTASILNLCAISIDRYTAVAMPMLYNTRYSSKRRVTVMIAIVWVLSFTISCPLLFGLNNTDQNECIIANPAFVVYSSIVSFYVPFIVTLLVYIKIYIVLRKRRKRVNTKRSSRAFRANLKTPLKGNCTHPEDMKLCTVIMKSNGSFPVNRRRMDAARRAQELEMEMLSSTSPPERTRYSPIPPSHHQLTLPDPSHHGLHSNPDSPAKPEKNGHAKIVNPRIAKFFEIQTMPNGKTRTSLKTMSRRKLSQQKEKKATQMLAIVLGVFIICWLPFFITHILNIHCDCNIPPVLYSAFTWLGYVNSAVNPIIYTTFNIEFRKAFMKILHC
Chain of human D1 receptor (P21728 whole entry): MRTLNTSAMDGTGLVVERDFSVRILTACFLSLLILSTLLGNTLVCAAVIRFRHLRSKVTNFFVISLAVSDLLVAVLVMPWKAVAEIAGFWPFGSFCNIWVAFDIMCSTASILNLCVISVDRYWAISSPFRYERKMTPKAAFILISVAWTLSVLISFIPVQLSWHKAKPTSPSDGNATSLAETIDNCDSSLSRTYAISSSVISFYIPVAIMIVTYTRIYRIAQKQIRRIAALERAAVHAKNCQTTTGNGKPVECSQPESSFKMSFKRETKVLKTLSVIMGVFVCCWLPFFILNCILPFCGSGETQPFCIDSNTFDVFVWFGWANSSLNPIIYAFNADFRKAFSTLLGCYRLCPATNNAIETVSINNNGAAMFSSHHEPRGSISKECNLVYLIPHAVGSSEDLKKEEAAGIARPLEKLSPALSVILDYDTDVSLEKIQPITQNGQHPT

CCCN(CC[C@]1(O)C[C@@H](NC(=O)c2ccc3ccccc3c2)C1)[C@H]1CCc2nc(N)sc2C1 [Compound 16]
Dose producing peak levels of yawning (dopamine D3 receptor): 1.0 mg/kg | solubility (Aqueous solubility): > 100 mg/mL

CCCN(CC[C@]1(O)CC[C@H](NC(=O)c2ccc3ccccc3c2)CC1)[C@H]1CCc2nc(N)sc2C1 [Compound 13]
Selectivity D1-like/D3 (D3 receptor [1]): 15,115

CCCN(CCC)C1CCc2ccc(O)cc2C1 (centres unmarked) [Compound 3, 7-hydroxy dipropylaminotetralin]
Selectivity over the D2 receptor (D3 receptor [2]): < 100 fold

CCCN1CCC[C@@H]2Cc3n[nH]cc3C[C@H]21 [Compound 2, Quinpirole]
Selectivity over the D2 receptor (D3 receptor [2]): < 100 fold

CCCN(CC[C@H]1C[C@H](NC(=O)c2ccc3ccccc3c2)C1)[C@H]1CCc2nc(N)sc2C1 [Compound 14]
Selectivity D1-like/D3 (D3 receptor [1]): 14,848

O=C(NCCCCN1CCN(c2cccc(Cl)c2Cl)CC1)c1ccc2c(c1)Cc1ccccc1-2 [Compound 6]
Selectivity for D3 over D2 (D3 receptor [2]): ≤ 100 fold

CCCN(CC[C@]1(O)CC[C@@H](NC(=O)c2ccc3ccccc3c2)CC1)[C@H]1CCc2nc(N)sc2C1 [Compound 12]
Selectivity D1-like/D3 (D3 receptor [1]): 7,373

N#Cc1ccc2c(c1)CCN(CCC1CCC(NC(=O)c3ccnc4ccccc34)CC1)C2 (centres unmarked) [Compound 4]
Selectivity for D3 over D2 (D3 receptor [2]): ≤ 100 fold

Cc1nc(-c2cccc(C(=O)NC3CCC(CCN4CCc5ccc(S(C)(=O)=O)cc5CC4)CC3)c2)no1 (centres unmarked) [Compound 5]
Selectivity for D3 over D2 (D3 receptor [2]): ≤ 100 fold

OC1(c2ccc(Cl)cc2)CCN(Cc2c[nH]c3ccccc23)CC1 [L-741,626]
Effect of antagonist on hypothermia induced by compound 17 (D2 receptor; 10 mg/kg compound 17): did not have a significant effect | Effect of antagonist on hypothermia induced by pramipexole (D2 receptor; in vivo, 0.32 mg/kg): significantly reversed | Effect of antagonist on yawning induced by lower agonist doses (dopamine D3 receptor; pramipexole 0.1 mg/kg and 17 1.0 mg/kg): failed to modulate

CCCN(CC[C@H]1C[C@@H](NC(=O)c2ccc3ccccc3c2)C1)[C@H]1CCc2nc(N)sc2C1 [Compound 15]
Selectivity D1-like/D3 (D3 receptor [1]): 8,822

CCCN[C@H]1CCc2nc(N)sc2C1 [Compound 1, Pramipexole]
Decrease in core body temperature (D2 receptor; 0.32 mg/kg): approximately 0.75 °C | Effect on core body temperature (D2 receptor; doses of 0.32 and 1.0 mg/kg): significant decreases | Dose at onset of modest D2 agonist activity (D2 receptor): 0.32 mg/kg | High doses at which D2 agonist effects may be observed (dopamine D3 receptor): ~ 1.0 mg/kg

CCCN(CC[C@]1(O)C[C@H](NC(=O)c2ccc3ccccc3c2)C1)[C@H]1CCc2nc(N)sc2C1 [Compound 17]
Effect on core body temperature (D2 receptor; 3.2 mg/kg): no significant effect | Effect on core body temperature (D2 receptor; 10 mg/kg): significant but a modest effect | Decrease in core body temperature (D2 receptor; 10 mg/kg): approximately 0.75 °C | Dose at onset of modest D2 agonist activity (D2 receptor): 10 mg/kg | Binding to human D1 receptor (human D1 receptor): no detectable binding | Dose producing peak levels of yawning (dopamine D3 receptor): 1.0 mg/kg | High doses at which D2 agonist effects may be observed (dopamine D3 receptor): ~ 10.0 mg/kg | Dose active at the D3 receptor (significant yawning activity) (dopamine D3 receptor; lowest active dose): 0.01 mg/kg | solubility (Aqueous solubility): > 100 mg/mL

CCCN(CC[C@H]1CC[C@H](NC(=O)c2ccc3ccccc3c2)CC1)[C@H]1CCc2nc(N)sc2C1 [Compound 11]
Aqueous solubility [3]: > 50 mg/mL

CCCN(CC[C@H]1CC[C@H](NC(=O)/C=C/c2ccccc2)CC1)[C@H]1CCc2nc(N)sc2C1 [Compound 10]
Aqueous solubility [3]: > 50 mg/mL
